Source: patent US11279687B2, “Compounds and compositions for the inhibition of NAMPT” (Valo Health, Inc., priority 2010, dated 2022)

What was measured:
[1] = test system: A2780 cells; test: In-vitro cell proliferation assay (SRB), A2780 cells; type: cell-based; details: Homo sapiens, A2780, 72 h, A2780 cells, 72 hours, SRB; read-out: A2780 IC50;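 further: viable cell number read as SRB absorbance, background from media-only wells subtracted, IC50 interpolated from percent inhibition at two bracketing compound concentrations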
[2] = molecular target: NAMPT (Homo sapiens (Human), UniProt P43490); test: NAMPT biochemical inhibition assay (NMN quantified by mass spectrometry); details: NAMPT biochemical inhibition; read-out: Biochem IC50
Chain of NAMPT (P43490 whole entry): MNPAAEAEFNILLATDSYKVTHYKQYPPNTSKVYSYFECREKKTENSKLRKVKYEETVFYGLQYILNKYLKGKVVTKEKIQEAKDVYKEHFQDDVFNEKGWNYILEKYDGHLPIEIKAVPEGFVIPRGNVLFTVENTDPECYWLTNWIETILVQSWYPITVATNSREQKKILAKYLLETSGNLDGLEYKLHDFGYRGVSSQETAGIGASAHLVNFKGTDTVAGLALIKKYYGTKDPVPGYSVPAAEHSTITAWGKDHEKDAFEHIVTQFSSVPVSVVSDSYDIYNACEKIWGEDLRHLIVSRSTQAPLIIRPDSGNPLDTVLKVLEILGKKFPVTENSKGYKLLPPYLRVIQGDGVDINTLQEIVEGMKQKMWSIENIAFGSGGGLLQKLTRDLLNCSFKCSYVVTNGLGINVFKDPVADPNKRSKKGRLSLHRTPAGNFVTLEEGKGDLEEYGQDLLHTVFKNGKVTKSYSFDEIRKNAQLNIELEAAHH

| Structure (SMILES) | IC50 [1] [nM] | IC50 [2] [nM] |
| --- | --- | --- |
| CCCOc1ccc(S(=O)(=O)c2ccc(NC(=O)NCc3cccnc3)cc2)cc1F [3-{4-[(3-fluoro-4-propoxybenzene)sulfonyl]phenyl}-1-(pyridin-3-ylmethyl)urea] | 58.5 | 1.3 |
| COc1cc(S(=O)(=O)c2ccc(NC(=O)NCc3cccnc3)cc2)ccc1C [3-{4-[(3-methoxy-4-methylbenzene)sulfonyl]phenyl}-1-(pyridin-3-ylmethyl)urea] | 17.9 | 2.7 |
| COc1cc(NS(=O)(=O)c2ccc(NC(=O)NCc3cccnc3)cc2)ccc1C [3-{4-[(3-methoxy-4-methylphenyl)sulfamoyl]phenyl}-1-(pyridin-3-ylmethyl)urea] | 148 | 4 |
| Cc1cccc(N2CCN(S(=O)(=O)c3ccc(NC(=O)NCc4cccnc4)cc3)C[C@@H]2C)c1 [3-{4-[(3S)-3-methyl-4-(3-methylphenyl)piperazine-1-sulfonyl]phenyl}-1-(pyridin-3-ylmethyl)urea] | 34 | 3 |
| Cc1ccc(N2CCN(S(=O)(=O)c3ccc(NC(=O)NCc4cccnc4)cc3)C[C@@H]2C)cc1 [3-{4-[(3S)-3-methyl-4-(4-methylphenyl)piperazine-1-sulfonyl]phenyl}-1-(pyridin-3-ylmethyl)urea] | 95 | 4 |
| CC(=O)c1ccc(S(=O)(=O)c2ccc(NC(=O)NCc3cccnc3)cc2)cc1 [3-{4-[(4-acetylbenzene)sulfonyl]phenyl}-1-(pyridin-3-ylmethyl)urea] | 100 to 1000 | 2 |
| CC(=O)c1ccc(NS(=O)(=O)c2ccc(NC(=O)NCc3cccnc3)cc2)cc1 [3-{4-[(4-acetylphenyl)sulfanoyl]phenyl}-1-(pyridin-3-ylmethyl)urea] | 1000 to 10000 | 14.4 |
| O=C(NCc1cccnc1)Nc1ccc(S(=O)(=O)c2ccc(Cl)cc2F)cc1 [3-{4-[(4-chloro-2-fluorobenzene)sulfonyl]phenyl}-1-(pyridin-3-ylmethyl)urea] | 415 | 2 |
| Cc1cc(Cl)ccc1S(=O)(=O)c1ccc(NC(=O)NCc2cccnc2)cc1 [3-{4-[(4-chloro-2-methylbenzene)sulfonyl]phenyl}-1-(pyridin-3-ylmethyl)urea] | 755 | 6 |
| COc1cc(S(=O)(=O)c2ccc(NC(=O)NCc3cccnc3)cc2)ccc1Cl [3-{4-[(4-chloro-3-methoxybenzene)sulfonyl]phenyl}-1-(pyridin-3-ylmethyl)urea] | 63.2 | 4.4 |
| O=C(NCc1cccnc1)Nc1ccc([S+]([O-])c2ccc(Cl)cc2)cc1 (centres unmarked) [3-{4-[(4-chlorobenzene)sulfmyl]phenyl}-1-(pyridin-3-ylmethyl)urea] | 41 | 8 |
| O=C(NCc1cccnc1)Nc1ccc(S(=O)(=O)Nc2ccc(Cl)c3ccccc23)cc1 [3-{4-[(4-chloronaphthalen-1-yl)sulfamoyl]phenyl}-1-(pyridin-3-ylmethyl)urea] | 53 | 5 |
| CCOc1ccc(NS(=O)(=O)c2ccc(NC(=O)NCc3cccnc3)cc2)c(F)c1 [3-{4-[(4-ethoxy-2-fluorophenyl)sulfamoyl]phenyl}-1-(pyridin-3-ylmethyl)urea] | 157 | 4 |
| CCOc1ccc(S(=O)(=O)c2ccc(NC(=O)NCc3cccnc3)cc2)cc1F [3-{4-[(4-ethoxy-3-fluorobenzene)sulfonyl]phenyl}-1-(pyridin-3-ylmethyl)urea] | 21.7 | 1.2 |
| CCOc1ccc(S(=O)(=O)c2ccc(NC(=O)NCc3cccnc3)cc2)cc1 [3-{4-[(4-ethoxybenzene)sulfonyl]phenyl}-1-(pyridin-3-ylmethyl)urea] | 100 to 1000 | 2.2 |
| COc1cc(F)ccc1NS(=O)(=O)c1ccc(NC(=O)NCc2cccnc2)cc1 [3-{4-[(4-fluoro-2-methoxyphenyl)sulfamoyl]phenyl}-1-(pyridin-3-ylmethyl)urea] | 116 | 7 |

Results, then the molecule that gave them:

| IC50 [1] [nM] | IC50 [2] [nM] | Structure (SMILES) |
| --- | --- | --- |
| 173 | 2 | COc1ccc(S(=O)(=O)c2ccc(NC(=O)NCc3cccnc3)cc2)cc1F [3-{4-[(3-fluoro-4-methoxybenzene)sulfonyl]phenyl}-1-(pyridin-3-ylmethyl)urea] |
| 206 | 1 | Cc1ccc(S(=O)(=O)c2ccc(NC(=O)NCc3cccnc3)cc2)cc1F [3-{4-[(3-fluoro-4-methylbenzene)sulfonyl]phenyl}-1-(pyridin-3-ylmethyl)urea] |
| 100 to 1000 | 1.7 | COc1cc(F)cc(S(=O)(=O)c2ccc(NC(=O)NCc3cccnc3)cc2)c1 [3-{4-[(3-fluoro-5-methoxybenzene)sulfonyl]phenyl}-1-(pyridin-3-ylmethyl)urea] |
| 99.3 | 1.7 | Cc1cc(F)cc(S(=O)(=O)c2ccc(NC(=O)NCc3cccnc3)cc2)c1 [3-{4-[(3-fluoro-5-methylbenzene)sulfonyl]phenyl}-1-(pyridin-3-ylmethyl)urea] |
| 238 | 1 | O=C(NCc1cccnc1)Nc1ccc(S(=O)(=O)c2cccc(F)c2)cc1 [3-{4-[(3-fluorobenzene)sulfonyl]phenyl}-1-(pyridin-3-ylmethyl)urea] |
| 100 to 1000 | 6.6 | CS(=O)(=O)c1cccc(S(=O)(=O)c2ccc(NC(=O)NCc3cccnc3)cc2)c1 [3-{4-[(3-methanesulfonylbenzene)sulfonyl]phenyl}-1-(pyridin-3-ylmethyl)urea] |
| 157 | 2 | Cc1cccc(S(=O)(=O)c2ccc(NC(=O)NCc3cccnc3)cc2)c1 [3-{4-[(3-methylbenzene)sulfonyl]phenyl}-1-(pyridin-3-ylmethyl)urea] |
| 100 to 1000 | 3.8 | CCCOc1cccc(S(=O)(=O)c2ccc(NC(=O)NCc3cccnc3)cc2)c1 [3-{4-[(3-propoxybenzene)sulfonyl]phenyl}-1-(pyridin-3-ylmethyl)urea] |
| 239 | 3 | O=C(NCc1cccnc1)Nc1ccc(S(=O)(=O)c2ccc(Br)cc2)cc1 [3-{4-[(4-bromobenzene)sulfonyl]phenyl}-1-(pyridin-3-ylmethyl)urea] |
| 221 | 3 | O=C(NCc1cccnc1)Nc1ccc(S(=O)(=O)c2ccc(Cl)c(F)c2)cc1 [3-{4-[(4-chloro-3-fluorobenzene)sulfonyl]phenyl}-1-(pyridin-3-ylmethyl)urea] |
| 533 | 3 | CCc1ccc(S(=O)(=O)c2ccc(NC(=O)NCc3cccnc3)cc2)cc1 [3-{4-[(4-ethylbenzene)sulfonyl]phenyl}-1-(pyridin-3-ylmethyl)urea] |
| 28.2 | 2 | COc1cc(F)ccc1S(=O)(=O)c1ccc(NC(=O)NCc2cccnc2)cc1 [3-{4-[(4-fluoro-2-methoxybenzene)sulfonyl]phenyl}-1-(pyridin-3-ylmethyl)urea] |
| 287 | 5 | Cc1cc(F)ccc1S(=O)(=O)c1ccc(NC(=O)NCc2cccnc2)cc1 [3-{4-[(4-fluoro-2-methylbenzene)sulfonyl]phenyl}-1-(pyridin-3-ylmethyl)urea] |
| 44.6 | 3.7 | COc1cc(S(=O)(=O)c2ccc(NC(=O)NCc3cccnc3)cc2)ccc1F [3-{4-[(4-fluoro-3-methoxybenzene)sulfonyl]phenyl}-1-(pyridin-3-ylmethyl)urea] |
| 100 to 1000 | 3.7 | Cc1cc(S(=O)(=O)c2ccc(NC(=O)NCc3cccnc3)cc2)ccc1F [3-{4-[(4-fluoro-3-methylbenzene)sulfonyl]phenyl}-1-(pyridin-3-ylmethyl)urea] |
